The values below come from PMC8703450, “New Heterocyclic Combretastatin A-4 Analogs: Synthesis and Biological Activity of Styryl-2(3H)-benzothiazolones” (Pharmaceuticals, 2021).

For data set [1], the system named is EA.hy926 cells. Nature of the data set: MTT cytotoxicity / growth inhibition assay, EA.hy926. The class given is cell-based, human. To be noted: Homo sapiens; for IC50: EA.hy 926, 72 h of treatment. The method, then: The endothelial cell line (EA.hy926) was kindly provided by Dr. C-J.S. Edgell—University of North Carolina, USA. Cells were cultured in 4.5 g/L D-Glucose DMEM/F12 medium, supplemented with 10% fetal bovine serum (FBS, Cytogen GmBH, Greven, Germany) and 100 U/mL penicillin and streptomycin (Lonza BioWhitaker, Verviers, Belgium). The other cell lines used are described in Table S3.1. Cell cultures were maintained in an incubator at 37 °C with 95% humidity and 5% CO2 and were routinely found free of mycoplasma.
(§1) All tested compounds were dissolved in DMSO at 25 mM initial concentration and diluted with medium to obtain the working concentrations (0.01 nM–250 µM). Serial drug dilutions were prepared in medium immediately before each experiment. The DMSO working concentration in the medium was […]. For the MTT assay, cells were seeded into 96-well microtitre plates at a density of 1 × 10^4 in 100 µL complete medium per well. They were further incubated for 24 h, followed by treatment with CA-4 analogs up to 72 h. Cell viability was determined using the MTT assay. Ten µL of MTT solution (5 mg/mL) was added to each well and further incubated for 3 h at 37 °C. To dissolve the formazan product, 100 µL/well of 99.5% isopropanol was added. Cell viability was determined by measuring absorbance at 550/630 nm using a DTX880 plate reader (Beckman Coulter, USA). Results, expressed as concentrations that inhibit 20% (IC20), 50% (IC50), and 80% (IC80) of cell growth, were calculated using GraphPad Prism 8.0.1.

The subject of a further data set is HT-29 cells. Put plainly: MTT cytotoxicity assay, HT-29. The class given is cell-based, human. To be noted: for IC50: Homo sapiens. The method, then:
as §1
(§2) Table S 3.1. Description of eukaryotic cell lines used for MTT assay. […]
HT-29 h colon, colorectal Radostina adenocarcinoma Alexandrova 3.1 g/L D-Glucose […]
colon, colon Kindly provided U/mL streptomycin
In general terms: Tetrazolium assays rely on reduction of a dye to a coloured formazan, in cell work by metabolically active cells.

The next data set has as its system MDA-MB-231 cells. Nature of the data set: MTT cytotoxicity assay, MDA-MB-231. The class given is cell-based, human. The method, then:
as §1, §2
Kindly provided 3.1 g/L Glucose,
mammary by Prof. Iana DMEM/F12 with
Breast MDA- gland/breast; derived Tsoneva 10% FBS, 100 U/mL
MB-231 h from metastatic site: (IBPhBME – penicillin, 100 U/mL
pleural effusion; BAS) streptomycin (Lonza). […]

A short description of data set [2]: MTT cytotoxicity assay, BEAS-2B control cells. In kind it is cell-based. The following applies: human, read-out: Cytostatic activity (% viable cells). On the procedure:
as §1
(§3) Table S 3.1. Description of eukaryotic cell lines used for MTT assay.
(§4) Panel Cell line Origin Tissue, characteristics Source Culture conditions
(§5) (h) lung carcinoma ATCC, CCL-185 U/mL penicillin, 100
lung, bronchus; insulin, rhEGF, GA-
BEAS-2B h epithelial virus ATCC, CRL- 1000, BPE,

Data set [3] relates to EA.hy926 cells. Put plainly: Cell cycle analysis (propidium iodide, flow cytometry). In kind it is cell-based, human. The following applies: 300 nM 26Z or 10 nM CA-4. On the procedure:
A total of 5 × 10^5 cells was treated with 26Z and CA-4 for time-response assays. Cells were collected by scraping, pelleted, washed with cold PBS (1×), and fixed overnight at 4 °C with 1 mL of ice-cold methanol–acetone (1:1), added dropwise to the pellet while vortexing. Pellets were resuspended and washed in 500 μL of PBS (1×), then permeabilized with a Triton X-100 (0.05–0.1%)/DNA extraction buffer (0.2 M Na2HPO4, 0.04 M citric acid, pH 7.8) in a 1:1 ratio for 15 min. After that, pelleted cells were treated with RNAse A (20 μg/mL) and labeled with 10 μg/mL of propidium iodide (Sigma-Aldrich) by incubation at 37 °C for at least 30 min, protected from light. DNA content was measured using a FACS Calibur flow cytometer ([…], NJ, USA), and cell cycle analysis was performed with FlowJo software (version 8.7). At least 10,000 events were recorded for each sample measured in duplicate.
For orientation: In flow cytometry, cells or beads pass a laser one at a time.

In data set [4] the test system is EA.hy926 cells. Put plainly: Matrigel tube disruption assay. In kind it is cell-based, human. To be noted: EA.hy926 on Matrigel, 24 h of treatment. On the procedure: The tube formation assay was performed in 96-well plates coated with 40 µL BD Matrigel™ (basement membrane matrix), following the manufacturer’s instruction (BD Biosciences). A total of 2 × 10^4 EA.hy926 cells was re-suspended in growth medium and added to each well in a final volume of 100 µL. Tube formation was visualized directly using a light microscope. Images were captured using a phase-contrast microscope and quantitation was performed using the WimTube application of the Wimasis online image analysis platform (https://www.wimasis.com/en/products/13/WimTube; accessed on 1 June 2021).

Data set [5] has as its system EA.hy926 cells. Nature of the data set: Immunofluorescence of mitotic spindles (α-tubulin). In kind it is cell-based, human. The following applies: 24 h. The method, then: Indirect immunofluorescence was used to examine the effect of 26Z on α-tubulin in EA.hy 926 cells. A total of 1 × 10^4 cells grown on coverslips were washed with PBS and fixed with 3.7% buffered paraformaldehyde. Single fluorescence cell labeling was performed, as described by Apostolova et al., with a primary chicken antibody against α-tubulin (ab89984, Abcam) for 2 h. Cells were washed three times with PBS for 5 min and incubated for 60 min with a goat anti-chicken secondary antibody labeled with AlexaFluor-488 (ab150173, Abcam). F-actin was detected using AlexaFluor-568 Phalloidin (Invitrogen, MA, USA). Following three washes with PBS and two in water, the slides were mounted in UltraCruz fluorescence mounting medium with DAPI (sc-24941, Santa Cruz Biotechnology, USA). Fluorescence microscopy was performed with a Carl Zeiss Axiovert 200 M Inverted Microscope and Andor Dragonfly 505 Confocal Microscope equipped with an iXon Ultra 888 EMCCD camera (Andor, Oxford Instruments, Belfast, Northern Irelands).

Data set [6] has as its system rhodamine-labeled α,β-tubulin. Nature of the data set: Ex vivo rhodamine-tubulin polymerization (fluorescence microscopy). To be noted: 20 μM, 37 °C, 45 min.
Procedure: TAMRA-Tubulin (TL590M, Cytoskeleton) diluted in GTB buffer (PEM, 10% glycerol, 1 mM GTP) was mixed with unlabeled α,β-tubulin (T240, Cytoskeleton) at a ratio of 1:3 (v/v) to a concentration of 4.0 mg/mL. […] Samples were then centrifuged for 20 min at 30,000× g. The pellets were diluted in 6 µL PEM buffer, containing 1 mM GTP and 0.5% glutaraldehyde, mixed with anti-fade mounting media (P36934, Invitrogen, Eugene, USA), and examined under a confocal LSM 980 Airyscan microscope (Carl Zeiss AG, Oberkochen, Germany).
The test system of the next data set is A549 cells. Put plainly: MTT cytotoxicity assay, A549. The class given is cell-based. The following applies: Homo sapiens, 72 h. On the procedure:
as §1, §3, §4, §5
lung, bronchus; insulin, rhEGF, GA- […]
Colon BAS) 10% (v/v) FBS, 100

Read-outs that look alike come from different tables or passages of the source.

The term IC50 denotes the concentration needed to halve the response being measured. As usually defined, the IC20 is the point of the concentration-response curve where the effect stands at 20%. Usually IC80 stands for the point of the concentration-response curve where the effect stands at 80%. Turning to `COc1cc(/C=C\c2ccc3c(c2)sc(=O)n3C)cc(OC)c1OC` [Compound 26Z, (Z)-3-methyl-6-(3,4,5-trimethoxystyryl)-2(3H)-benzothiazolone], the IC50 in the data set with EA.hy926 cells [1] worked out at 130 ± 10 nM; with HT-29 cells (HT-29, 72 h), 8 ± 1 nM; in the data set on MDA-MB-231 cells (Homo sapiens, MDA-MB-231, 72 h), 1350 ± 420 nM. This compound had a 20% effect concentration (IC20) in the data set with EA.hy926 cells [1] (EA.hy 926, concentration that inhibits 20% of cell growth) of 40 ± 10 nM. It took 300 ± 40 nM to reach the 80% level in the data set on EA.hy926 cells [1] (EA.hy 926, concentration that inhibits 80% of cell growth) (IC80). Also, the “greater cytotoxic effect compared to CA-4” value with HT-29 cells (HT-29 cells, 72 h) is reported as “more than 250 times”. Also, the viability at 72 h in data set [2] was 80%. In addition, the “cells in G2/M” value in the data set with EA.hy926 cells [3] (EA.hy926, 4 h) was ~ 35%; with EA.hy926 cells [3] (EA.hy926, 24 h) it was ~ 78%. For the same compound, the “reduction in cumulative tube length” value in the data set on EA.hy926 cells [4] (IC50 concentration, compared with time 0) was ~ 70%. Also, the “decrease of branching points” value in the data set on EA.hy926 cells [4] (equitoxic IC50 concentration) worked out at 63%. For the same compound, the “number of spindle poles (multipolarity)” value with EA.hy926 cells [5] (EA.hy926, IC50 (130 nM)) is reported as 3.9 ± 0.99; in the data set with EA.hy926 cells [5] (EA.hy926, IC80 (300 nM)) it was 8.8 ± 2.3. Also, the “fluorescent microtubule fiber formation” value in data set [6] was “blocked the process of fiber formation”.
For the compound `COc1ccc(/C=C\c2cc(OC)c(OC)c(OC)c2)cc1O` [CA-4, Combretastatin A-4], the IC50 in the data set on EA.hy926 cells [1] is 3.3 ± 0.2 nM; in the data set on HT-29 cells (HT-29 cells, 72 h, MTT, read-out: IC50), 2160 ± 230 nM; in the data set on A549 cells, 3010 ± 160 nM. In addition, the “Cytostatic activity (% viable cells)” value with MDA-MB-231 cells (MDA-MB-231 cells, 72 h, MTT) came to 55%. Further, in [2] (BEAS-2B cells), the viability at 72 h stood at 80%. The “decrease of branching points” value in the data set with EA.hy926 cells [4] (equitoxic IC50 concentration) is 50%. Moreover, the “reduction of loop numbers” value with EA.hy926 cells [4] (equitoxic IC50 concentration) is 56 ± 3%. In [6], the “fluorescent microtubule fiber formation” value is “blocked the process of fiber formation”.
